One test concerns Phytophthora cinnamomi. As to the kind of experiment: Amended agar assay (potato dextrose agar), reduction in colony growth. In kind it is cell-based. Conditions: for EC50: descending test concentrations, 5-fold dilutions typically down to 0.032 ppm, read-out: Phytophthora cinnamomi (EC50). The procedure: (§1) Testing was carried out on potato dextrose agar (PDA) amended with each compound at test concentrations of 20, 4 and 0.8, 0.16 and 0.032 ppm. Amended agar at each test concentration was poured into three replicate 9 cm petri dishes. Each replicate dish was inoculated in the centre with a 5 mm agar plug taken from the leading edge of a culture aged between 2 and 7 days old; the age of the culture was dependant on the growth rate of the pathogen being tested. The test pathogens were Pythium ultimum and Phytophthora cinnamomi. Plates were incubated at 18° C. and the diameter of each colony measured before growth on the fastest growing plate reached the plate edge. This varied between 2 and 7 days depending on the growth rate of test pathogens. The % reduction in colony growth compared to the control was calculated for each test concentration and pathogen combination.
(§2) The results are shown in Table 1 in which * represents an average control of up to 50% at said dosage; ** represents an average control of 50% or greater but less than 80% at said dosage; and *** represents an average control of 80% or greater at said dosage.
(§3) A primary screen was also conducted for a number of other compounds of the invention. The screen was conducted at 20 ppm and the results are provided in Table 2, in which D represents no control detected at this concentration; C represents up to 50% control; B from 50 to 99% control; and A represents a control of greater than 99%.
(§4) Alternatively, or in addition, the same assay was conducted at descending test concentrations with 5-fold dilutions typically down to 0.032 ppm, and an EC50 (the concentration at which 50% control would be achieved) was determined. The results are provided in Table 1 in which G represents an EC50 above 20 ppm, F represents an EC50 of 2-20 ppm and E represents and EC50 less than 2 ppm.

A further test deals with Pythium ultimum. The description is as above. The format is cell-based. Conditions: for EC50: descending test concentrations, 5-fold dilutions typically down to 0.032 ppm, read-out: Pythium ultimum (EC50). The procedure:
as §1, §2, §3, §4

We go through six compounds from US11641858B2, “Agricultural chemicals” (Redag Crop Protection Ltd, priority 2016, dated 2023).

A value given as a limit tells only on which side of the number the result lay.

The term EC50 denotes the concentration needed to bring the measured effect to its halfway point.

With `Cn1nnnc1-n1c(OCc2cccc(NC(=O)C(F)(F)Oc3ccccc3)n2)nc2ccc(F)cc21` [Example 6], the EC50 in the test with Phytophthora cinnamomi and with Pythium ultimum (Globisporangium ultimum) was < 2 µg/mL each time. Also, the “control over the fungal pathogens tested (in words)” value is “excellent control” with Phytophthora cinnamomi (primary screen at 20 ppm) and “excellent control” in the test on Pythium ultimum (Pythium ultimum, primary screen at 20 ppm). Also, the inhibition of growth at 20 ppm in the test with Phytophthora cinnamomi (primary screen at 20 ppm, read-out: % control at 20 ppm) is > 99%; in the test with Pythium ultimum (Globisporangium ultimum, Pythium ultimum, primary screen at 20 ppm, read-out: % control at 20 ppm), > 99%.
Turning to `CCCCCOC(=O)Nc1cccc(COc2nc3ccccc3n2-c2nnnn2C)n1` [Example 16], the EC50 with Phytophthora cinnamomi and in the test on Pythium ultimum (Globisporangium ultimum) was < 2 µg/mL throughout.
Consider `CC(C)CCC(=O)Nc1cccc(COc2nc3ccccc3n2-c2nnnn2C)n1` [Example 49], for which the EC50 in the test on Phytophthora cinnamomi and in the test with Pythium ultimum (Globisporangium ultimum) was < 2 µg/mL in each case.
Regarding `Cn1nnnc1-n1c(OCc2cccc(NC(=O)Cc3ccccn3)n2)nc2ccccc21` [Example 38], the EC50 with Phytophthora cinnamomi and in the test with Pythium ultimum (Globisporangium ultimum) was < 2 µg/mL in each case.
Consider `Cn1nnnc1-n1c(OCc2cccc(NC(=O)COc3ccccc3)n2)nc2ccccc21` [Example 25], for which the EC50 in the test with Phytophthora cinnamomi and in the test with Pythium ultimum (Globisporangium ultimum) was < 2 µg/mL throughout.
As to `Cn1nnnc1-n1c(OCc2cccc(NC(=O)C(F)(F)Oc3ccccc3)n2)nc2ccc(C#N)cc21` [Example 60], the EC50 with Phytophthora cinnamomi and in the test on Pythium ultimum (Globisporangium ultimum) was < 2 µg/mL each time.
